Source: publication PMC5428013, “Peptide-Au Clusters Induced Tumor Cells Apoptosis via Targeting Glutathione Peroxidase-1: The Molecular Dynamics Assisted Experimental Studies” (Scientific Reports, 2017)
“Also recorded” adds a separate entry of the source.

Assays:
GPx-1 [1] = test: GPx-1 expression in A549 cells, western blotting; type: cell-based, human; details: Au dose 0, 100, 200, 400, 800 μM, 48 h
Procedure: (§1) The expression of GPx-1, caspase-3 and PARP from Au25P1_9 treated A549 cells were analyzed by western blotting. A549 cells were prior seeded on 6-well plate (at the density of 1 × 10^5 cells/well) for 24 h. Then the medium was discarded and fresh culture medium with Au25P1_9 at different doses was added to make cells exposed to final Au doses at 0, 100, 200, 400 and 800 μM, respectively. After another 48 h incubation, the cells were harvested and lysed by cell lysis buffer for Western and IP (containing 20 mM Tris-HCl, pH7.5, 150 mM NaCl, 1% Triton X-100, sodium pyrophosphate, β-glycerophosphate, EDTA, Na3VO4 and leupeptin), protease inhibitor cocktail tablet and 1 mM PMSF for 15 min on a shaker at 4 °C. The lysed cells were collected and centrifuged for 15 min at 12,000 g to get total protein of cells. The protein dose of each sample was prior quantified, and then loading buffer was added. After boiling for 5 min, the protein samples with equal amount were separated on 12% SDS polyacrylamide gel electrophoresis and then transferred onto the polyvinylidene difluoride (PVDF) membrane. Membrane was blocked by 5% nonfat dried milk prepared in tris(hydroxymethyl)amin omethane-NaCl-Tween 20 (TBST) at room temperature for 1 h, and then incubated with primary antibodies specific to β-actin, Caspase-3, PARP and GPx-1 at 4 °C overnight, respectively. […]

GPx-1 [2] = test: Cellular GPx-1 activity in treated A549 cells; type: cell-based, human; details: 48 h
Procedure: (§2) A549 cells were prior seeded on 6-well plate (at the density of 1 × 10^5 cells/well) for 24 h. Then the medium was discarded and fresh culture medium with Au25P1_9 at different doses was added to make cells exposed to final Au doses at 0, 100, 200, 400 and 800 μM, respectively. After another 48 h incubation, the cells were washed thrice with PBS and lysed by cell lysis buffer containing 1 mM PMSF for 15 min on a shaker at 4 °C. The lysed cells were collected and centrifuged for 20 min at 12,000 g to get total protein of cells. The protein dose of each sample was quantified by BCA Protein Assay Kit and the GPx-1 activity of peptide-Au clusters treated A549 cells was measured by GPx Activity Colorimetric Assay Kit, respectively. For the control experiments, a series of Au doses of Au25P1_9 at 0, 5, 25, 100, 400 μM were incubated with the GPx-1 containing cell lysate of A549 cells for 10 min and the GPx-1 activity of theses samples was also measured. The GPx-1 activity of untreated samples was set as 100%, and that of peptide-Au clusters treated samples were expressed as a relative percentage of untreated ones.

caspase-3 = test: Cleaved caspase-3 level, western blotting; type: cell-based, human; details: serial Au doses (0, 100, 200, 400, 800 μM), 48 h
Procedure: as §1

A549 cells [3] = test: Intracellular ROS level by flow cytometry (CM-H2DCFDA); type: cell-based, human; details: 48 h
Procedure: (§3) For CLSM observation, cells were prior cultured on glass-bottom dishes. Au25P1_9 was added to culture medium and the final Au dose was 800 µM. After 48 h. the cells were washed three times with PBS and incubated with 5 µM CM-H2DCFDA, at 37 °C under darkness for 30 min. Before CLSM observation, the culture medium was discarded and the cells were washed three times with PBS, supplemented with fresh culture medium. Finally, ROS in cells were highlighted by green fluorescence emission of CM-H2DCFDA, imaged under Nikon Ti-e microscope with excitation at wavelengths of 488 nm. For flow cytometry analysis, cells were prior seeded on 6-well plate (at the density of 1 × 10^5 cells/well) for 24 h. Then the medium was discarded and fresh culture medium containing Au25P1_9 with Au dose at 800 μM was added. For another 48 h incubation, the cells were washed thrice with PBS, and incubated with 5 µM CM-H2DCFDA at 37 °C under darkness for 30 min. After washing with PBS, the cells were collected and suspended in ice cold PBS. Fluorescence intensity of 20,000 events was recorded using an Accuri C6 flow cytometer and the level of intracellular ROS was analyzed by Cflow software.

HCT-8 cells = test: Cell viability assay (CCK-8), HCT-8; type: cell-based, human; details: HCT-8, same condition as A549
Procedure: (§4) Briefly, cells were prior cultured on 96-well plates (at the density of 5 × 10^3 cells/well) for 24 h to allow cells attachment. The cells were treated with different doses of these free peptides (0, 1, 4, 16, 64, 256, 1024 µM) and peptide-Au clusters (0, 50, 100, 200, 400, 800 µM in Au dose) for 48 h, respectively. The cells were washed three times with PBS and then incubated with fresh growth medium containing 10% (v/v) CCK-8 reagent for 1 h at 37 °C for cell viability assay. The absorbance was measured at 450 nm by using a microplate reader (SpectraMAX M2, Sunnyvale, California). Cell viability of untreated cells was set as 100%, and that of treated cells were expressed as a relative percentage of untreated cells. All data were shown as mean percentages ± standard deviation from three independent experiments.

A549 cells [4] = test: Cell viability assay (CCK-8), A549; type: cell-based, human; details: 48 h; for cell viability suppression by peptide-Au clusters (words): A549, Au dose 0, 50, 100, 200, 400, 800 µM
Procedure: as §4

A549 cells [5] = test: Intracellular ROS level by CLSM (CM-H2DCFDA); type: cell-based, human; details: Au25P1_9, final Au dose 800 µM, 48 h, 5 µM CM-H2DCFDA
Procedure: as §3

A549 cells [6] = test: Mitochondrial membrane potential assay (JC-1); type: cell-based, human; details: 800 µM Au, 48 h, JC-1, CLSM
Procedure: Disruption of ΔΨm is an important step in the induction of cellular apoptosis. JC-1, a sensitive mitochondrial dye, was used to evaluate the ΔΨm. JC-1 can aggregates in the mitochondrial matrix to yield red fluorescence (λem = 590 nm) at high mitochondrial membrane potential, while JC-1 monomer has green fluorescence at low mitochondrial membrane potential (λem = 527 nm). Therefore, using JC-1 easily signals the loss of ΔΨm, an event of early cell apoptosis. After treated with 800 µM of Au25P1_9 for 48 h on glass-bottom dish, cells were stained with JC-1 at 37 °C for 20 min under darkness. Then, cells were washed twice with cold buffer solution and JC-1 fluorescence inside cells was immediately observed by CLSM.

GPx-1 [7] = test: GPx-1 activity in A549 cell lysate; type: biochemical, human; details: Au dose 0, 5, 25, 100, 400 μM, 10 min
Procedure: as §2

## CCYGGPEEEEEVG [Au25P1_9, Au25 cluster coated by nine P1 peptides (…)]
GPx-1 [1]
  GPx-1 expression level: GPx-1 level remains stable
GPx-1 [2]; 800 μM of Au
  cellular GPx-1 activity (relative to untreated = 100%): 27%
GPx-1 [2]; Au dose 0, 100, 200, 400, 800 μM
  cellular GPx-1 activity: significantly decreases as Au25P1_9 dose increase; also recorded: the most effective candidate for suppression of GPx-1 activity in buffer and cells
caspase-3
  cleaved caspase-3 level: Au dose-dependent increase of cleaved caspases-3
A549 cells [3]; Au dose 800 µM, with CM-H2DCFDA, CM-H2DCFDA only control 20088, untreated 2674
  FL1-H fluorescence intensity (ROS): 43464
A549 cells [3]; Au dose of 800 μM, 5 µM CM-H2DCFDA, flow cytometry, 20,000 events
  intracellular ROS level relative to control: ~ 210%
HCT-8 cells
  change of cell viability: almost negligible
A549 cells [4]
  cell viability suppression by peptide-Au clusters (words): can suppress cell viability
A549 cells [4]; listed as Au25P19
  cell viability suppression by peptide-Au clusters (words): exhibits the best suppression capacity for A549 cell viability
A549 cells [4]; A549, Au dose of 800 μM, CCK-8, mean from three independent experiments
  cell viability (relative to untreated = 100%): 40%
A549 cells [5]
  intracellular ROS by CLSM: obvious green fluorescence, a sign of increased intracellular ROS
A549 cells [6]
  mitochondrial membrane potential change: a red to green emission shift can be observed in most cells after treated with Au25P1_9, indicating mitochondria depolarization
GPx-1 [7]
  GPx-1 activity in cell lysate: suppressed via an Au dose dependent manner
